Measured values published in US20240090503A1, “FUNGICIDAL OXADIAZOLES AND THEIR MIXTURES” (FMC CORPORATION, priority 2020, published 2024).
Marks after values point to notes of the source that are not given here.

Assays:
Type in all cases: in vivo
[1] = tested on: Zymoseptoria tritici (the causal agent of wheat leaf blotch); experiment: Test B: preventive spray on wheat seedlings, wheat leaf blotch, visual disease rating; settings: wheat seedlings
Outline: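 This is a preventive test: spray application preceded Zymoseptoria tritici spore inoculation by one day. Test suspensions were in acetone/water with 250 ppm PEG400 surfactant, at the listed ppm rate. After 48 h saturated humidity at 24° C and 17 days at 20° C, visual ratings scored control from 0 to 100%.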

[2] = tested on: Phakopsora pachyrhizi (the causal agent of Asian soybean rust); experiment: Test A: preventive spray on soybean seedlings, Asian soybean rust, visual disease rating; settings: soybean seedlings
Outline: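 Preventive test: soybean seedlings received a run-off spray of compound suspended at the set ppm in 50/50 acetone/water plus 250 ppm PEG400, and one day later a P. pachyrhizi spore inoculum. Visual scoring (0 none to 100 full disease control) followed 24 h saturated incubation and 8 days' growth chamber, both at 22° C.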

[3] = tested on: Puccinia recondita f. sp. tritici (the causal agent of wheat leaf rust); experiment: Test C: preventive spray on wheat seedlings, wheat leaf rust, visual disease rating; settings: wheat seedlings
Outline: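 Wheat seedlings sprayed to run-off with compound in acetone/water (50/50) with 250 ppm PEG400, then inoculated with spores the following day. After 24 h saturated humidity at 20° C. and 6 days in growth chamber at 20° C., disease rated visually as % control relative to untreated controls.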

[4] = test suspension 100 ppm (** next to rating)
[5] = test suspension 10 ppm, 100 = 100% disease control, 0 = no control

SMILES: COC(=O)c1nncn1Cc1ccc(-c2noc(C(F)(F)F)n2)cc1 [compound 138]
- Test B disease control rating ([1]; test suspension 260 ppm): 96%
- Test A disease control rating ([2]; test suspension 260 ppm): 100%
- Test C disease control rating ([3]; test suspension 260 ppm): 100%

SMILES: COC(=O)c1ncn(Cc2ccc(-c3noc(C(F)(F)F)n3)cc2)n1 [compound 139]
- Test B disease control rating ([1]; test suspension 255 ppm): 62%
- Test A disease control rating ([2]; test suspension 255 ppm): 100%
- Test C disease control rating ([3]; test suspension 255 ppm): 100%

SMILES: FC(F)(F)c1nc(-c2ccc(Cn3ccc(-c4ccccc4Cl)n3)cc2)no1 [compound 142]
- Test B disease control rating ([1]; test suspension 250 ppm): 57%
- Test A disease control rating ([2]; test suspension 250 ppm): 100%
- Test C disease control rating ([3]; test suspension 250 ppm): 100%

SMILES: FC(F)(F)c1nc(-c2ccc(Cn3ncc4ccccc43)cc2)no1 [compound 143]
- Test B disease control rating ([1]; test suspension 250 ppm): 71%
- Test A disease control rating ([2]; test suspension 250 ppm): 100%
- Test C disease control rating ([3]; test suspension 250 ppm): 100%

SMILES: FC(F)(F)c1cc(C(F)(F)F)n(Cc2ccc(-c3noc(C(F)(F)F)n3)cc2)n1 [compound 144]
- Test B disease control rating ([1]; test suspension 250 ppm): 0%
- Test A disease control rating ([2]; test suspension 250 ppm): 36%
- Test C disease control rating ([3]; test suspension 250 ppm): 0%

SMILES: Cc1cc(C)n(Cc2ccc(-c3noc(C(F)(F)F)n3)cc2)n1 [compound 145]
- Test B disease control rating ([1]; test suspension 250 ppm): 0%
- Test A disease control rating ([2]; test suspension 250 ppm): 100%
- Test C disease control rating ([3]; test suspension 250 ppm): 100%

SMILES: FC(F)(F)c1nc(-c2ccc(Cn3cc(Br)c(-c4ccccc4Cl)n3)cc2)no1 [compound 146]
- Test B disease control rating ([1]; test suspension 250 ppm): 0%
- Test A disease control rating ([2]; test suspension 250 ppm): 100%
- Test C disease control rating ([3]; test suspension 250 ppm): 0%

SMILES: FC(F)(F)c1nc(-c2ccc(CN3CCC4(CC3)OCCO4)cc2)no1 [compound 149]
- Test B disease control rating ([1]; test suspension 260 ppm): 72%
- Test A disease control rating ([2]; test suspension 260 ppm): 100%
- Test C disease control rating ([3]; test suspension 260 ppm): 100%

SMILES: O=C1CCN(Cc2ccc(-c3noc(C(F)(F)F)n3)cc2)CC1 [compound 150]
- Test B disease control rating ([1]; test suspension 255 ppm): 19%
- Test A disease control rating ([2]; test suspension 255 ppm): 100%
- Test C disease control rating ([3]; test suspension 255 ppm): 100%

SMILES: FC(F)(F)c1ccn(Cc2ccc(-c3noc(C(F)(F)F)n3)cc2)n1 [compound 153]
- Test B disease control rating ([1]; test suspension 250 ppm): 0%
- Test A disease control rating ([2]; test suspension 250 ppm): 100%
- Test C disease control rating ([3]; test suspension 250 ppm): 89%

SMILES: O=c1sc2ccccc2n1Cc1ccc(-c2noc(C(F)(F)F)n2)cc1 [compound 156]
- Test B disease control rating ([1]; test suspension 255 ppm): 86%
- Test A disease control rating ([2]; test suspension 255 ppm): 100%
- Test C disease control rating ([3]; test suspension 255 ppm): 100%

SMILES: O=C1N(Cc2ccc(-c3noc(C(F)(F)F)n3)cc2)c2ccccc2C1(F)F [compound 161]
- Test B disease control rating ([1]; test suspension 265 ppm): 33%
- Test A disease control rating ([2]; test suspension 265 ppm): 100%
- Test C disease control rating ([3]; test suspension 265 ppm): 99%

SMILES: FC(F)(F)c1nc(-c2ccc(Cn3cccn3)cc2)no1 [compound 162]
- Test B disease control rating ([1]; test suspension 250 ppm): 0%
- Test A disease control rating ([2]; test suspension 250 ppm): 100%
- Test C disease control rating ([3]; test suspension 250 ppm): 100%

SMILES: FC(F)(F)c1nc(-c2ccc(Cn3cc(Br)cn3)cc2)no1 [compound 163]
- Test B disease control rating ([1]; test suspension 250 ppm): 0%
- Test A disease control rating ([2]; test suspension 250 ppm): 100%
- Test C disease control rating ([3]; test suspension 250 ppm): 100%

SMILES: NC(=O)C1=NOC(Cc2ccc(-c3noc(C(F)(F)F)n3)cc2)C1 (stereo not drawn) [compound 164]
- Test B disease control rating ([1]; test suspension 250 ppm): 88%
- Test A disease control rating ([2]; test suspension 250 ppm): 100%
- Test C disease control rating ([3]; test suspension 250 ppm): 100%

SMILES: CNC(=O)C1=NOC(Cc2ccc(-c3noc(C(F)(F)F)n3)cc2)C1 (stereo not drawn) [compound 165]
- Test B disease control rating ([1]; test suspension 260 ppm): 95%
- Test A disease control rating ([2]; test suspension 260 ppm): 100%
- Test C disease control rating ([3]; test suspension 260 ppm): 100%

SMILES: C=CCOC(=O)c1cnn(Cc2ccc(-c3noc(C(F)(F)F)n3)cc2)c1 [compound 166]
- Test B disease control rating [1, 4]: 90** %
- Test A disease control rating [2, 5]: 100%
- Test C disease control rating ([3]; test suspension 10 ppm): 100%

SMILES: C=C(C)COC(=O)c1cnn(Cc2ccc(-c3noc(C(F)(F)F)n3)cc2)c1 [compound 170]
- Test B disease control rating [1, 4]: 97** %
- Test A disease control rating [2, 5]: 100%
- Test C disease control rating ([3]; test suspension 10 ppm): 100%

SMILES: CC(C)COC(=O)c1cnn(Cc2ccc(-c3noc(C(F)(F)F)n3)cc2)c1 [compound 171]
- Test B disease control rating [1, 4]: 37** %
- Test A disease control rating [2, 5]: 100%
- Test C disease control rating ([3]; test suspension 10 ppm): 100%

SMILES: CCNC(=O)C1=NOC(Cc2ccc(-c3noc(C(F)(F)F)n3)cc2)C1 (stereo not drawn) [compound 175]
- Test B disease control rating ([1]; test suspension 255 ppm): 95%
- Test A disease control rating ([2]; test suspension 255 ppm): 100%
- Test C disease control rating ([3]; test suspension 255 ppm): 100%

SMILES: C#CCNC(=O)C1=NOC(Cc2ccc(-c3noc(C(F)(F)F)n3)cc2)C1 (stereo not drawn) [compound 176]
- Test B disease control rating ([1]; test suspension 250 ppm): 92%
- Test A disease control rating ([2]; test suspension 250 ppm): 100%
- Test C disease control rating ([3]; test suspension 250 ppm): 100%

SMILES: O=C(C1=NOC(Cc2ccc(-c3noc(C(F)(F)F)n3)cc2)C1)N1CCC1 (stereo not drawn) [compound 177]
- Test B disease control rating ([1]; test suspension 250 ppm): 97%
- Test A disease control rating ([2]; test suspension 250 ppm): 100%
- Test C disease control rating ([3]; test suspension 250 ppm): 100%

SMILES: FC(F)(F)c1nc(-c2ccc(CNC3CC3)s2)no1 [compound 191]
- Test B disease control rating ([1]; test suspension 250 ppm): 96* %
- Test A disease control rating ([2]; test suspension 50 ppm): 100%
- Test C disease control rating ([3]; test suspension 50 ppm): 100%

SMILES: CCOC(=O)c1cnn(Cc2csc(-c3noc(C(F)(F)F)n3)c2)c1 [compound 193]
- Test B disease control rating ([1]; test suspension 250 ppm): 28* %
- Test A disease control rating ([2]; test suspension 50 ppm): 100%
- Test C disease control rating ([3]; test suspension 50 ppm): 100%

SMILES: CCOC(=O)c1csc(Cc2ccc(-c3noc(C(F)(F)F)n3)s2)n1 [compound 201]
- Test B disease control rating ([1]; test suspension 250 ppm): 28%
- Test A disease control rating ([2]; test suspension 250 ppm): 100%
- Test C disease control rating ([3]; test suspension 250 ppm): 100%

SMILES: O=C(NCC1CC1)c1csc(Cc2ccc(-c3noc(C(F)(F)F)n3)s2)n1 [compound 202]
- Test B disease control rating ([1]; test suspension 250 ppm): 83%
- Test A disease control rating ([2]; test suspension 250 ppm): 100%
- Test C disease control rating ([3]; test suspension 250 ppm): 100%

SMILES: CCOC(=O)c1cnn(Cc2ccc(-c3noc(C(F)(F)F)n3)o2)c1 [compound 210]
- Test B disease control rating ([1]; test suspension 250 ppm): 63* %
- Test A disease control rating ([2]; test suspension 50 ppm): 100%
- Test C disease control rating ([3]; test suspension 50 ppm): 99%

SMILES: CCCOC(=O)c1cnn(Cc2ccc(-c3noc(C(F)(F)F)n3)o2)c1 [compound 211]
- Test B disease control rating ([1]; test suspension 250 ppm): 70* %
- Test A disease control rating ([2]; test suspension 50 ppm): 100%
- Test C disease control rating ([3]; test suspension 50 ppm): 100%

SMILES: O=C(NCC(F)(F)F)c1cnn(COc2ccc(-c3noc(C(F)(F)F)n3)cc2)c1 [compound 212]
- Test B disease control rating ([1]; test suspension 250 ppm): 79* %
- Test A disease control rating [2, 5]: 100%
- Test C disease control rating ([3]; test suspension 10 ppm): 100%

SMILES: COCCNC(=O)c1cnn(COc2ccc(-c3noc(C(F)(F)F)n3)cc2)c1 [compound 213]
- Test B disease control rating ([1]; test suspension 250 ppm): 82* %
- Test A disease control rating [2, 5]: 100%
- Test C disease control rating ([3]; test suspension 10 ppm): 74%

SMILES: N#CCNC(=O)c1cnn(COc2ccc(-c3noc(C(F)(F)F)n3)cc2)c1 [compound 214]
- Test B disease control rating ([1]; test suspension 250 ppm): 73* %
- Test A disease control rating [2, 5]: 100%
- Test C disease control rating ([3]; test suspension 10 ppm): 74%

SMILES: O=C(NCCn1cccn1)c1cnn(COc2ccc(-c3noc(C(F)(F)F)n3)cc2)c1 [compound 215]
- Test B disease control rating ([1]; test suspension 250 ppm): 90* %
- Test A disease control rating [2, 5]: 99%
- Test C disease control rating ([3]; test suspension 10 ppm): 74%

SMILES: O=C(OCC1CC1)c1cnn(COc2ccc(-c3noc(C(F)(F)F)n3)cc2)c1 [compound 216]
- Test B disease control rating ([1]; test suspension 250 ppm): 9* %
- Test A disease control rating [2, 5]: 100%
- Test C disease control rating ([3]; test suspension 10 ppm): 74%

SMILES: CCCOC(=O)c1cnn(COc2ccc(-c3noc(C(F)(F)F)n3)cc2)c1 [compound 217]
- Test B disease control rating ([1]; test suspension 250 ppm): 35* %
- Test A disease control rating [2, 5]: 100%
- Test C disease control rating ([3]; test suspension 10 ppm): 86%

SMILES: CN(C)C(=O)C1=NOC(CCOc2cccc(-c3noc(C(F)(F)F)n3)c2)C1 (stereo not drawn) [compound 224]
- pest or weed control at 250 µg/mL ([1]; Zymoseptoria tritici, 456 h, test suspension 250 ppm): 81%
- pest or weed control at 50 µg/mL ([2]; Phakopsora pachyrhizi, 216 h, test suspension 50 ppm): 100%
- pest or weed control at 50 µg/mL ([3]; Puccinia recondita, 168 h, test suspension 50 ppm): 89%

SMILES: O=C(NCC1CC1(F)F)c1coc(Cc2ccc(-c3noc(C(F)(F)F)n3)cc2)n1 (stereo not drawn) [compound 226]
- Test B disease control rating ([1]; test suspension 250 ppm): 94* %
- Test A disease control rating [2, 5]: 100%
- Test C disease control rating ([3]; test suspension 10 ppm): 100%
